Patent US7795305B2, “CDDO-compounds and combination therapies thereof” (Board of Regents, The University of Texas System, priority 2000, dated 2010)

Experiments:
[1] = test system: HL-60 cells; assay: CDDO-Me plus LG-100268 in HL-60 cells (Table 6); format: cell-based, human; design: unit not given here; settings: 24 hrs; CDDO-Me 0.1 μM, no ligand
Method: Finally, the inventors examined if CDDO-Me combined with ATRA would enhance differentiation. HL-60 cells were cultured with of 0.1 μM of CDDO-Me for 72 hrs, alone or in combination with 1 μM ATRA. […] At 48 hrs, 67.4% in CDDO-Me-treated cells and 63.5% in ATRA-treated cells were CD11b+ (compared with 40% in DMSO controls), while 85% of cells were positive when both compounds were given simultaneously. These studies were repeated 3 times and yielded essentially identical results. Next, combined treatment with CDDO-Me and RXR-specific ligand were tested for potentiation of anti-leukemic effects. RXR-specific ligand LG-100268 (Ligand Pharmaceuticals) used at 10, 100 nm and 1 μM enhanced killing of HL-60 cells in a dose-dependent manner (Table 6).

[2] = test system: ERK immunoprecipitated from K562 cells; assay: In vitro ERK (MAPK kinase) assay, MBP phosphorylation; format: biochemical; settings: 0.1, 1, and 10 μM
Method: In vitro ERK assay. The effect of CDDO or CDDO-Me was determined using an in vitro MAPK kinase assay kit from Upstate Biotechnology (Lake Placid, N.Y.) and ERK1/2 antibody from Santa Cruz Biotechnology (Santa Cruz, Calif.). For each sample, ERK 1/2 was immunoprecipitated from 2×10^7 K562 or 1×10^7 HL60 cells using a specific anti-ERK 1/2 antibody and Protein A agarose (Life Technologies, Rockville, Md.). The ERK-containing agarose pellet was resuspended in Assay Buffer containing an inhibitor cocktail (PKC inhibitor peptide, PKA inhibitor peptide, and Compound R24571) to block possible contaminating non-ERK kinases. Where appropriate, varying concentrations (0.1, 1, and 10 μM) of CDDO or CDDO-Me was added. Dephosphorylated myelin basic protein (MBP; 25 μg) was used as substrate. Phosphorylation of MBP was observed by using an anti-phospho-MBP antibody. […] The amount of ERK2 immunoprecipitated from each sample was determined by using anti-ERK2 antibody.
To determine specific effects of CDDO-Me on ERK activity the inventors used an in vitro MAPK kinase assay kit. ERK was immunoprecipitated from K562 cells since these cells contain the Bcr-Abl kinase and activated ERK present in these cells under basal conditions.

[3] = test system: AML CD34+ cells; assay: Fas expression in primary AML CD34+ cells; format: cell-based, human
Method: Immunophenotyping. The PE-conjugated anti-CD11b, FITC-conjugated anti-CD14 monoclonal antibody (mAb) (Becton Dickinson) and PE-conjugated anti-CD95 mAb (PharMingen) were used at a 1/10 dilution. The percentage of positive cells was calculated by subtracting the percentage of cells with a fluorescence intensity greater than the set marker using the isotype control (background) from the percentage of cells with a fluorescence intensity greater than the same marker using the specific antibody.
Mechanisms of CDDO-induced apoptosis in leukemia cell lines and in primary AML samples were also determined. The involvement of the death receptor/Fas pathway was studied in NB4 cells. Treatment with 0.5 μM CDDO induced cell surface Fas/CD95 expression at 48 hours (MFI 34.8 vs 24.8 in DMSO-treated cells and 26 in untreated control). At this concentration, 22.3% of cells were annexin V positive compared with 11.4% in DMSO-controls. At 1 μM, 56.3% of cells were apoptotic. Similarly, 1 μM CDDO induced Fas expression in 7/12 AML CD34+ cells (MFI, 22.3±3.5 in DMSO-controls, 40±4.3 in CDDO-treated CD34+ cells, p<0.01).

[4] = molecular target: T1, PPARγ LBD (Homo sapiens, UniProt P37231); assay: Scintillation proximity assay (SPA), competition binding; settings: read-out: Ki, competition with [3H]-rosiglitazone for binding to PPARγ LBD
T1 construct: bacterially expressed PPARγ LBD; made in house
T1 sequence (P37231 238-503 limits assumed): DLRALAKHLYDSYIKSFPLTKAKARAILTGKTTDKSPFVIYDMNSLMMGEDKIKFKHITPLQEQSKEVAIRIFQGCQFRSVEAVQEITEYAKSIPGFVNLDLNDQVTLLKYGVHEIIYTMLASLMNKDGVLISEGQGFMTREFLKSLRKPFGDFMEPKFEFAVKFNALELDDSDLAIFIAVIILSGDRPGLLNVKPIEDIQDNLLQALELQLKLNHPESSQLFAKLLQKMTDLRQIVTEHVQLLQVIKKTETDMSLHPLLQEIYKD
Description: PPARγ, a member of a family of nuclear receptors, induces differentiation and growth arrest in preadipocyte cells and can mediate inflammatory processes.

[5] = test system: wt-PPARγ-transfected D9 cells; assay: Annexin V / cell number in wt-PPARγ-transfected D9 cells; format: cell-based
Method: Annexin V staining. Cells were washed in phosphate-buffered saline (PBS) and resuspended in 100 μl of binding buffer containing Annexin V (Roche Diagnostic Corporation, Indianapolis, Ind.). Cells were analyzed by flow cytometry after the addition of propidium iodide (PI). Annexin V binds to those cells that express phosphatidylserine on the outer layer of the cell membrane, and PI stains the cellular DNA of those cells with a compromised cell membrane. This allows for live cells (unstained with either fluorochrome) to be discriminated from apoptotic cells (stained only with annexin V) and necrotic cells (stained with both annexin and PI).
(§1) To characterize the correlation between PPARγ and caspase activation, caspase-3 levels in D9 cells transfected with wt-PPARγ were analyzed. Six different single cell-derived clones were treated with 3 μM CDDO or vehicle controls for 5 hrs. Caspase-3 cleavage was analyzed by Western blot. A decrease in pro-caspase-3 with appearance of the cleaved product was readily observed in all clones. The degree of cleavage was higher in PPARγ-transfected than in vector control cells that express endogenous PPARγ. […] These changes correlated with plasma membrane changes: vector control=47.0% annexin V-positive cells; wt-PPARγ-transfected cells=73.3±1.1% annexin V (+), n=6. […] PPARγ-transfected cells were also more sensitive to PPARγ-ligand 15d-PGJ2 (41.00% vs 16.0% annexin (+) cells at 3 μM).
as §1, with “(41.0%” for “(41.00%”
The sensitivity of leukemic cells that overexpress PPARγ to CDDO-induced killing was tested. Vector control (pcDNA) or wt-PPARγ-transfected D9 cells (2 different clones) were treated 0.2 μM of CDDO for 48 hrs. Cell viability was assessed by cell count after Trypan blue exclusion, and apoptosis determined by PS/annexin V/Propidium Iodide (PI) flow cytometry. Leukemic cells transfected with PPARγ expressed 2.8-3.7-fold higher amounts of protein compared with vector controls. […] Importantly, CDDO increased PPARγ expression in both, vector control and transfected cells. […]

Structure (SMILES)	Table 6 value: CDDO-Me-induced monocytic differentiation in HL-60 cells [1]	MBP phosphorylation by ERK [2]	AML samples with induced Fas expression in CD34+ cells ([3]; 1 μM)	Fas expression, MFI ([3]; 1 μM (22.3±3.5 in DMSO-controls))	Ki [4]	annexin V (+) cells ([5]; 3 μM (CDDO: 5 hrs, n=6))	cell number decreased by ([5]; 3 μM CDDO)	higher sensitivity compared to vector-control cells ([5]; all six single cell-derived subclones, 0.2 μM CDDO, 48 hrs)
COC(=O)[C@]12CCC(C)(C)C[C@H]1[C@H]1C(=O)C=C3[C@@]4(C)C=C(C#N)C(=O)C(C)(C)[C@@H]4CC[C@@]3(C)[C@]1(C)CC2 [CDDO-Me]	22.4	inhibited MBP phosphorylation in a dose-dependent manner						
CC1(C)CCC2(C(=O)O)CCC3(C)C(C(=O)C=C4C5(C)C=C(C#N)C(=O)C(C)(C)C5CCC43C)C2C1 (centres unmarked) [CDDO, 2-cyano-3,12-dioxoolen-1,9-dien-28-oic acid]			7/12	40±4.3	12 nM	73.3±1.1%	48.8±12.4%	> 50%
